In publication PMC4512978, “Synthesis and evaluation in rats of homologous series of [^18F]-labeled dopamine D2/3 receptor agonists based on the 2-aminomethylchroman scaffold as potential PET tracers” (EJNMMI Research, 2015):

Tested on: D2/3R
Test: Kinetic analysis of PET data (1TCM, 2TCM, Logan, SRTM);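 for 2TCM BPND change relative to control: Raclopride 1 mg/kg intravenous pretreatment versus saline controls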;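 for SRTM BPND change relative to control: Raclopride 1 mg/kg intravenous pretreatment versus saline controls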
Assay type: in vivo, Sprague-Dawley rats
Design: key to SRTM BPND / 1TCM BPND / 2TCM BPND (VT-based): BPND = VT(target)/VT(cerebellum) − 1 (or SRTM, cerebellum reference); SRTM BPND change relative to control / 1TCM BPND change relative to control / 2TCM BPND change relative to control / Logan BPND change relative to control: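 Raclopride 1 mg/kg intravenous pretreatment versus saline controls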; 1TCM VT / 2TCM VT: unit not given here
Procedure: Kinetic analysis is described using the nomenclature proposed by Innis et al.. ROI TACs of [^18F]FEt-AMC13 were analyzed with one-tissue and two-tissue compartmental models of reversible binding (1TCM and 2TCM, respectively) to obtain individual rate constants. From these, the regional distribution volumes (VT) were calculated and compared to those obtained with Logan graphical analysis. Binding potentials (BPND) were calculated from the distribution ratios as VT (target) / VT (cerebellum) – 1, or estimated with the simplified reference tissue model (SRTM) using the cerebellum as reference region.
Metabolite-corrected plasma-derived arterial input function and whole blood time-activity curve were used for Logan, 1TCM, and 2TCM analyses. Fractional cerebral blood volume was set to 3.6 % [27]. For one rat in the raclopride-treated group, no input curves could be obtained; therefore, its PET data were only analyzed with SRTM.
Degree of D2/3R-specific binding of the tracers was characterized by BPND (as given above) or the specific binding ratio (SBR) given as target region activity/cerebellar activity - 1. Both were calculated under control conditions and in response to the raclopride challenge.

[1] = Cortex, raclopride, listed as [18F]FEt-AMC13
[2] = Hippocampus, raclopride, listed as [18F]FEt-AMC13
[3] = Hypothalamus, control rat A, SD could not be estimated

SMILES: Oc1ccc2c(c1)O[C@@H](CNCc1ccc(OCC[18F])cc1)CC2 [[^18F]FEt-AMC13]
- 2TCM k2 (Cortex, control rat C): 0.19 ± 1.58 min⁻¹
- 2TCM k3 (Cortex, control rat C): 1.50 ± 19.49 min⁻¹
- 2TCM k4 (Cortex, control rat C): 1.00 ± 1.64 min⁻¹
- 1TCM K1 (Cortex, control rat D): 0.47 ± 0.02 mL/g/min
- 1TCM k2 (Cortex, control rat D): 0.09 ± 0.01 min⁻¹
- 2TCM K1 (Cortex, control rat D): 1.46 ± 0.45 mL/g/min
- 2TCM k2 (Cortex, control rat D): 6.65 ± 0.77 min⁻¹
- 2TCM k3 (Cortex, control rat D): 2.62 ± 1.18 min⁻¹
- 2TCM k4 (Cortex, control rat D): 0.11 ± 6.33 min⁻¹
- 1TCM BPND (Cortex, raclopride): 0.17±0.05
- 1TCM BPND change relative to control (Cortex, raclopride): -9%
- 1TCM VT (Cortex, raclopride): 5.17±0.60
- 2TCM BPND (VT-based) (Cortex, raclopride): 0.10 ± 0.02
- 2TCM BPND change relative to control (Cortex, raclopride): −27%
- 2TCM VT (Cortex, raclopride): 5.45±0.52
- Logan BPND (Cortex, raclopride): 0.09±0.03
- Logan BPND change relative to control (Cortex, raclopride): -32%
- Logan VT (Cortex, raclopride): 5.42±0.44
- SRTM BPND (Cortex, raclopride): 0.08 ± 0.02
- SRTM BPND change relative to control (Cortex, raclopride): −24%
- 2TCM BPND (VT-based) [1]: 0.10±0.02
- 2TCM BPND change relative to control [1]: -27%
- SRTM BPND [1]: 0.08±0.02
- SRTM BPND change relative to control [1]: –24%
- 1TCM BPND (Hippocampus, control): 0.35±0.11
- 1TCM VT (Hippocampus, control): 6.34±0.71
- 2TCM BPND (VT-based) (Hippocampus, control): 0.30 ± 0.07
- 2TCM VT (Hippocampus, control): 6.62±0.86
- Logan BPND (Hippocampus, control): 0.28±0.04
- Logan VT (Hippocampus, control): 6.49±0.88
- SRTM BPND (Hippocampus, control): 0.26 ± 0.04
- 1TCM K1 (Hippocampus, control rat A): 0.41 ± 0.02 mL/g/min
- 1TCM k2 (Hippocampus, control rat A): 0.06 ± 0.01 min⁻¹
- 2TCM K1 (Hippocampus, control rat A): 2.21 ± 1.25 mL/g/min
- 2TCM k2 (Hippocampus, control rat A): 8.56 ± 3.62 min⁻¹
- 2TCM k3 (Hippocampus, control rat A): 1.60 ± 2.24 min⁻¹
- 2TCM k4 (Hippocampus, control rat A): 0.05 ± 8.88 min⁻¹
- 1TCM K1 (Hippocampus, control rat B): 0.51 ± 0.02 mL/g/min
- 1TCM k2 (Hippocampus, control rat B): 0.08 ± 0.01 min⁻¹
- 2TCM K1 (Hippocampus, control rat B): 0.71 ± 0.07 mL/g/min
- 2TCM k2 (Hippocampus, control rat B): 0.50 ± 0.23 min⁻¹
- 2TCM k3 (Hippocampus, control rat B): 0.50 ± 0.27 min⁻¹
- 2TCM k4 (Hippocampus, control rat B): 0.14 ± 0.03 min⁻¹
- 1TCM K1 (Hippocampus, control rat C): 0.46 ± 0.01 mL/g/min
- 1TCM k2 (Hippocampus, control rat C): 0.08 ± 0.004 min⁻¹
- 2TCM K1 (Hippocampus, control rat C): 0.60 ± 0.12 mL/g/min
- 2TCM k2 (Hippocampus, control rat C): 0.57 ± 0.77 min⁻¹
- 2TCM k3 (Hippocampus, control rat C): 1.17 ± 1.34 min⁻¹
- 2TCM k4 (Hippocampus, control rat C): 0.24 ± 0.09 min⁻¹
- 1TCM K1 (Hippocampus, control rat D): 0.48 ± 0.02 mL/g/min
- 1TCM k2 (Hippocampus, control rat D): 0.08 ± 0.01 min⁻¹
- 2TCM K1 (Hippocampus, control rat D): 101 ± 14615 mL/g/min
- 2TCM k2 (Hippocampus, control rat D): 1246 ± 181990 min⁻¹
- 2TCM k3 (Hippocampus, control rat D): 5.49 ± 4.23 min⁻¹
- 2TCM k4 (Hippocampus, control rat D): 0.07 ± 0.05 min⁻¹
- 1TCM BPND (Hippocampus, raclopride): 0.33±0.09
- 1TCM BPND change relative to control (Hippocampus, raclopride): -8%
- 1TCM VT (Hippocampus, raclopride): 5.88±0.56
- 2TCM BPND (VT-based) (Hippocampus, raclopride): 0.26 ± 0.06
- 2TCM BPND change relative to control (Hippocampus, raclopride): −13%
- 2TCM VT (Hippocampus, raclopride): 6.27±0.63
- Logan BPND (Hippocampus, raclopride): 0.25±0.05
- Logan BPND change relative to control (Hippocampus, raclopride): -10%
- Logan VT (Hippocampus, raclopride): 6.25±0.56
- SRTM BPND (Hippocampus, raclopride): 0.23 ± 0.05
- SRTM BPND change relative to control (Hippocampus, raclopride): −13%
- 2TCM BPND (VT-based) [2]: 0.26±0.06
- 2TCM BPND change relative to control [2]: -13%
- SRTM BPND [2]: 0.23±0.05
- SRTM BPND change relative to control [2]: –13%
- 1TCM BPND (Hypothalamus, control): 0.25±0.04
- 1TCM VT (Hypothalamus, control): 5.86±0.60
- 2TCM BPND (VT-based) (Hypothalamus, control): 0.22 ± 0.03
- 2TCM VT (Hypothalamus, control): 6.20±0.55
- Logan BPND (Hypothalamus, control): 0.21±0.04
- Logan VT (Hypothalamus, control): 6.10±0.44
- SRTM BPND (Hypothalamus, control): 0.21 ± 0.03
- 1TCM K1 (Hypothalamus, control rat A): 0.40 ± 0.03 mL/g/min
- 1TCM k2 (Hypothalamus, control rat A): 0.06 ± 0.01 min⁻¹
- 2TCM K1 [3]: 273 mL/g/min
- 2TCM k2 [3]: 1355 min⁻¹
- 2TCM k3 [3]: 1.65 min⁻¹
- 2TCM k4 [3]: 0.05 min⁻¹
- 1TCM K1 (Hypothalamus, control rat B): 0.53 ± 0.03 mL/g/min
- 1TCM k2 (Hypothalamus, control rat B): 0.09 ± 0.01 min⁻¹
- 2TCM K1 (Hypothalamus, control rat B): 1.17 ± 0.88 mL/g/min
- 2TCM k2 (Hypothalamus, control rat B): 3.45 ± 1.30 min⁻¹
- 2TCM k3 (Hypothalamus, control rat B): 2.22 ± 6.73 min⁻¹
- 2TCM k4 (Hypothalamus, control rat B): 0.13 ± 14.19 min⁻¹
- 1TCM K1 (Hypothalamus, control rat C): 0.50 ± 0.02 mL/g/min
- 1TCM k2 (Hypothalamus, control rat C): 0.08 ± 0.01 min⁻¹
- 2TCM K1 (Hypothalamus, control rat C): 0.64 ± 0.24 mL/g/min
- 2TCM k2 (Hypothalamus, control rat C): 0.63 ± 1.60 min⁻¹
- 2TCM k3 (Hypothalamus, control rat C): 1.37 ± 2.85 min⁻¹
- 2TCM k4 (Hypothalamus, control rat C): 0.27 ± 0.20 min⁻¹
- 1TCM K1 (Hypothalamus, control rat D): 0.59 ± 0.04 mL/g/min
- 1TCM k2 (Hypothalamus, control rat D): 0.12 ± 0.02 min⁻¹
- 2TCM K1 (Hypothalamus, control rat D): 680 ± 116990 mL/g/min
- 2TCM k2 (Hypothalamus, control rat D): 3105 ± 534810 min⁻¹
- 2TCM k3 (Hypothalamus, control rat D): 2.16 ± 0.48 min⁻¹
